“Also recorded” adds a separate entry of the source.
Key:
[1] = biological target: BoNT/A (Clostridium botulinum, UniProt P0DPI1); type: cell-based, C. botulinum
[2] = system: hiPSC-derived neurons

BoNT/A, sequence (P0DPI1 2-448 limits assumed): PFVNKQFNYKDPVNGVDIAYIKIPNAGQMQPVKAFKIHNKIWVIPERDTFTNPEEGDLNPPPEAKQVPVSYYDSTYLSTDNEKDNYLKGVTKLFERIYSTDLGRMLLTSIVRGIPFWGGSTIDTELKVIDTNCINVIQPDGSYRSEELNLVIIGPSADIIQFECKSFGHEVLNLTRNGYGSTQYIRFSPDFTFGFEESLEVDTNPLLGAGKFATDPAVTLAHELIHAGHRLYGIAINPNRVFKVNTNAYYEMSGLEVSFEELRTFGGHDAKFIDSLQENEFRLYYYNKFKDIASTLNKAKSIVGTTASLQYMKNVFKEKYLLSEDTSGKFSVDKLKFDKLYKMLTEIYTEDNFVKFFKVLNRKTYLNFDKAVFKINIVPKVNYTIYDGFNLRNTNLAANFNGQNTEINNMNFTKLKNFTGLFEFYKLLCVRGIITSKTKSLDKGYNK

With `O=C(CC(CCO)c1ccc(Cl)cc1Cl)NOC(=O)NCc1ccccc1` (centres unmarked) [compound 2, N-((benzylcarbamoyl)oxy)-3-(2,4-dichlorophenyl)-5-hydroxypentanamide] the Inhibition [1] was “no inhibition; also recorded: partial inhibition at 300 µM”, the “Inhibition / protection of SNAP-25 from the neurotoxin (result in words)” value [1] was “ineffective inhibitors” and the “Cytotoxicity (result in words)” value [2] was “did not show cytotoxicity”.
`O=C(/C=C/c1ccc(Cl)cc1Cl)NOC(=O)NCc1ccccc1` [compound 1, (E)-N-((benzylcarbamoyl)oxy)-3-(2,4-dichlorophenyl)acrylamide] was tested, and the “Inhibition / protection of SNAP-25 from the neurotoxin (result in words)” value [1] was “ineffective inhibitors” and the Cytotoxicity ([2]; at 150 µM) was “cytotoxic at 150 µM ^a”.
